The source of these data is patent US7897770B2 (General Electric Company, priority 2007, dated 2011).

Molecules are shown by their SMILES.

In this test the target is T1, VMAT-2 (Homo sapiens, UniProt Q05940).
T1 construct: Novascreen Biosciences Corporation (contract assay provider) protocol Cat. No. 100-0751
The test is described as follows: VMAT-2 binding affinity measurement, Novascreen protocol Cat. No. 100-0751. The settings on record: for Ki: VMAT-2 binding affinity. Here is the method: VMAT-2 binding affinity measurements were carried out by Novascreen Biosciences Corporation (Hanover, Md., USA) using protocol Cat. No. 100-0751. Novascreen, Inc. is a commercial provider of biological assays for the pharmaceutical industry.

T1 sequence (Q05940 whole entry, species assumed): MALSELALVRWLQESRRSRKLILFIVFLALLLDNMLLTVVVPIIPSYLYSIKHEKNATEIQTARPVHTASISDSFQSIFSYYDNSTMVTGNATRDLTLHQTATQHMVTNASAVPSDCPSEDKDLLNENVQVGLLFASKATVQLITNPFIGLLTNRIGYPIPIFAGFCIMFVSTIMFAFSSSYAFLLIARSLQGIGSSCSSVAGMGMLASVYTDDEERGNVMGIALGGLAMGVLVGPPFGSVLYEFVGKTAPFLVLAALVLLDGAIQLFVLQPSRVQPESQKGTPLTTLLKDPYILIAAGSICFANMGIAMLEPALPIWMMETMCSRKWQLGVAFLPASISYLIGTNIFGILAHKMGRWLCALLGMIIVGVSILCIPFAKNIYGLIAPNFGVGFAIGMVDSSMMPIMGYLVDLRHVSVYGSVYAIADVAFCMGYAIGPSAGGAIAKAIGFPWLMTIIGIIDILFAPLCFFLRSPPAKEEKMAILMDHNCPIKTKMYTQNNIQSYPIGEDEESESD

The Ki is the equilibrium dissociation constant of an inhibitor or competing ligand from its target. Regarding `COc1cc2c(cc1OC)[C@H]1C[C@@H](OCCF)[C@H](CC(C)C)CN1CC2` [Compound 22], the “VMAT-2 binding affinity, in words” value is listed as “very high binding affinity” and the Ki turned out to be 3.2 nM.

Regarding `COc1cc2c(cc1OC)[C@H]1C[C@@H](OCCCF)[C@H](CC(C)C)CN1CC2` [Compound 23], the “VMAT-2 binding affinity, in words” value is “very high binding affinity” and the affinity corresponds to a Ki of 6.4 nM.
